# Experimental data as given in patent US20060269529A1, “Modified t lymphocytes and uses therefor” (priority 2002, published 2006).
# How the values were obtained:
# [1] = tested on: CT26 murine colon adenocarcinomas; assay: Adoptive transfer, subcutaneous CT26 tumors in BALB/c mice; type: in vivo; details: combination study, TNP-470 30 mg/kg s.c. every other day, daily IL-2, FIG. 5A
# Experimental: (§1) On day 0, tumor cells were implanted into the subcutaneous space on the right flank of recipient mice. On the days of treatment, CTLs (4 to 7 post-transduction) were harvested, washed, resuspended in cold PBS, and injected in a volume of 300 μl into the retro-orbital venous plexus. […] TNP-470 (TAP Holdings Inc., Deerfield, Ill.) (30 mg/kg) was injected subcutaneously (into a site remote from the tumor) every other day in 0.3 ml PBS starting with the first day of CTL therapy. Starting volumes of tumors ranged from 40 to 80 mm^3.
# B16.F10 murine melanomas = assay: Adoptive transfer, subcutaneous B16.F10 tumors in C57BL/6 mice; type: in vivo; details: combination study, TNP-470 30 mg/kg s.c. every other day, daily IL-2, FIG. 5B
# Experimental: as §1
# T241 fibrosarcomas = assay: Adoptive transfer, T241 tumors in C57BL/6 mice; type: in vivo; details: combination study, TNP-470 30 mg/kg s.c. every other day, daily IL-2, FIG. 5C
# Experimental: as §1, with “mm^3. All mice were sacrificed when control mice reached a mean tumor volume of 2,000 mm^3 or had extensive tumor ulceration.” for “mm^3.”
# [2] = Toxicity observations in treated tumor-bearing mice; type: in vivo; details: TNP-470 alone
# Experimental: as §1, with “mm^3. All mice were sacrificed when control mice reached a mean tumor volume of 2,000 mm^3 or had extensive tumor ulceration.” for “mm^3.”
# human KDR-Fc (VEGFR2) = biological target: T1, human KDR-Fc (VEGFR2) (Homo sapiens, UniProt P35968); type: binding
# T1 construct: purchased R & D Systems
# Experimental: High-titer retrovirus encoding the gene for a soluble form of Flk-1, Flk-Fc, were used to infect 293T cells. Conditioned medium from these transduced cells was collected and subjected to Western blot analysis by using either antibody directed against Flk-1 or ^125I-labeled protein A to confirm the presence of both the Flk-1 and Fc portions of the fusion protein. For FACS analysis of HeLa-VEGF-cTcR cells, 2 ml of conditioned medium from these transduced cells or control media from untransduced 293T cells was used as the primary reagent. The cells were then washed and incubated with anti-mouse IgG2a-PE (Chemicon) and analyzed. For the VEGF-cTcR/KDR-Fc binding study, VEGF-cTcR clone 2 cells were incubated with increasing amounts of human KDR-Fc (R & D Systems), washed twice with PBS, and stained with anti-human IgG1-FITC antibody. For analysis of transduced CTLs, cells were incubated successively with anti-human c-Myc antibody, biotinylated anti-mouse IgG, and streptavidin-PE or only with anti-mouse CD8 antibody conjugated to FITC (Pharmingen).
# Flk-1 = Flk-1 (Mus musculus, UniProt P35918); details: Millauer 1993; Quinn 1993; cited from earlier work
# Sequence of Flk-1 (P35918 20-1345): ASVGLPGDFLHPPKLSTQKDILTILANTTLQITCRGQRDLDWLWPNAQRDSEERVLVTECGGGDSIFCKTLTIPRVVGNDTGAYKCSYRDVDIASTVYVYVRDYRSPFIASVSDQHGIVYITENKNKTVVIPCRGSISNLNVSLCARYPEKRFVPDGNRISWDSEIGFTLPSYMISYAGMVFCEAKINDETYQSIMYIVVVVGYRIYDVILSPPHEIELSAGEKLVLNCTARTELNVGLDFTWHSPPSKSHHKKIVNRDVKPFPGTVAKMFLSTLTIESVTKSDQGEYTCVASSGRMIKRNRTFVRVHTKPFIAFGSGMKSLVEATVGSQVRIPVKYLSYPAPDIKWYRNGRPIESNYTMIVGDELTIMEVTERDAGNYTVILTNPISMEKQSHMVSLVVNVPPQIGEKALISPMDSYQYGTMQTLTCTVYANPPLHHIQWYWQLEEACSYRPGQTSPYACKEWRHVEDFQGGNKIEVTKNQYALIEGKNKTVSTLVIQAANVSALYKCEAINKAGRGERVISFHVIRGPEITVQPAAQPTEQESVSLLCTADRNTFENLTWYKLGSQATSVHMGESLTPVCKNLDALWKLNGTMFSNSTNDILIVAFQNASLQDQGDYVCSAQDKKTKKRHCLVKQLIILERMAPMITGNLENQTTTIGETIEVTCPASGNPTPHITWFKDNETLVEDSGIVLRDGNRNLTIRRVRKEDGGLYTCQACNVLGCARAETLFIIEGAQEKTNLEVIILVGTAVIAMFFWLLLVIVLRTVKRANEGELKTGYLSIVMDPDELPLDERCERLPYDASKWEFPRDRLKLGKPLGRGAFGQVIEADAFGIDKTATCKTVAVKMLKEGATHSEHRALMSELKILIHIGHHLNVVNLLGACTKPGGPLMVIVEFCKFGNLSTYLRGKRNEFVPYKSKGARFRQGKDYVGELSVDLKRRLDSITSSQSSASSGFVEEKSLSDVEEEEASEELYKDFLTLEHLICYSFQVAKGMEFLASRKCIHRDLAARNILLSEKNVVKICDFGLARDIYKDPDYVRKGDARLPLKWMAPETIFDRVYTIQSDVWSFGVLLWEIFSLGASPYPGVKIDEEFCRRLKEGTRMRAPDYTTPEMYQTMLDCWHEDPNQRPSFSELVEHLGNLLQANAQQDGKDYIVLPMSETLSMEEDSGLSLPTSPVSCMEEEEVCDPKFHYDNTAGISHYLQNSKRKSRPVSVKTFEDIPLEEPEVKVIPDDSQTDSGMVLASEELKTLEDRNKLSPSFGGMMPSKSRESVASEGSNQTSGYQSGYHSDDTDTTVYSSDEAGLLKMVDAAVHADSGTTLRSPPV
# T1 sequence (P35968 20-764 limits assumed): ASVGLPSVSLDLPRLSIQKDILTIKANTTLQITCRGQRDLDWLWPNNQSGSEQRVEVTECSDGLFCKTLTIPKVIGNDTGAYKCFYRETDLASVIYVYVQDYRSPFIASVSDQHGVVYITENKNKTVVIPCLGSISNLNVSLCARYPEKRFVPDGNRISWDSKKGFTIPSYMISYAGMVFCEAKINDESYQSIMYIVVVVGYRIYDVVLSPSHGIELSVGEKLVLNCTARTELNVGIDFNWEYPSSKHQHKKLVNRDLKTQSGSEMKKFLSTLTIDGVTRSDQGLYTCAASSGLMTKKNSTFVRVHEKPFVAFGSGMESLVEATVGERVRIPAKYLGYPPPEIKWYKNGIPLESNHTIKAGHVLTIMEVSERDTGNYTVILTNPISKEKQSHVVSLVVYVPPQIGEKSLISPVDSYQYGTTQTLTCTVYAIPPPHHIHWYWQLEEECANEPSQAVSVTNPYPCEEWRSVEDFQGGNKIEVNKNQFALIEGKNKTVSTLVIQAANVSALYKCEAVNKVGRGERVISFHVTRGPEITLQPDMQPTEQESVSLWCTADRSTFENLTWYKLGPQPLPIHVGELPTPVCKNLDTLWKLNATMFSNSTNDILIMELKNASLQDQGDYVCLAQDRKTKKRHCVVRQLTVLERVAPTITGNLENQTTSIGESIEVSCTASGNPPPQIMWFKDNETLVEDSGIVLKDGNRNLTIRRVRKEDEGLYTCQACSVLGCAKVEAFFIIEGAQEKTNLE
molecule,measurement,setting,value
CO[C@@H]1[C@H](OC(=O)NC(=O)CCl)CC[C@]2(CO2)[C@H]1[C@@]1(C)O[C@@H]1CC=C(C)C [TNP-470],inhibition of CT26 adenocarcinoma growth,[1],70%
same,inhibition of B16.F10 melanoma growth,B16.F10 murine melanomas,71%
same,inhibition of T241 fibrosarcoma growth,T241 fibrosarcomas,73%
same,weight loss,[2]; 30 mg/kg s.c. every other day,up to 10 % of total body weight
same,reaction at the TNP-470 injection site,[2]; occasionally,mild skin breakdown
VEGF,inhibition of KDR-Fc binding to VEGF-cTcR clone 2 cells,human KDR-Fc (VEGFR2),inhibited in a dose-dependent manner
same,binding affinity reported for association of native VEGF and Flk-1,Flk-1,0.1 to 0.5 nM
